Source: patent publication US12503437B2, “1,1-dimethyl-2-[(E)-2-phenylethenyl]-1H-benzo[e]indole derivatives and uses thereof” (Kaunas University of Technology, priority 2023, dated 2025)
Where two headings read alike, the source gives them in different places. Values belong to the compound of their own block, whether it stands above or below them.

Legend:
[1] = Absorption and fluorescence properties in water; assay type: physicochemical; conditions: for λem: excitation wavelength 380 nm
Description: To determine the wavelength of light, at which 1,1-dimethyl-2-[(E)-2-phenylethenyl]-1H-benzo[e]indole derivatives should be irradiated for the investigation of their photodynamic activity, the absorption and fluorescence properties thereof were measured in water. The excitation wavelength λex was set to 380 nm. Based on the results an in-house constructed LED based light source specifically designed for the irradiation of 96-well microplates and Petri dishes (Tomecka et al., CZ302829B6, 2006) was chosen, with a maximal wavelength emission of 414 nm and light intensity set to 20 mW/cm^2.

[2] = tested on: G361 cells (human skin melanoma); test: MTT cell viability assay with photodynamic treatment; assay type: cell-based; conditions: 4 h treatment, further 72 h, MTT
Description: For photodynamic treatments, G361 cells (human skin melanoma) were cultivated in DMEM medium without phenol red supplemented with 10% fetal bovine serum, 100 U/mL penicillin, 100 μg/mL streptomycin, 2 mM glutamine, at 37° C. in 5% CO2 atmosphere. Cells were treated with test compounds and after 4 h were irradiated (the maximal wavelength emission of 414 nm and different total doses up to 10 J/cm^2). Further cultivation lasted for subsequent 16, 24 or 72 h.
Cell viability (EC50) was determined using the MTT (Sigma-Aldrich) assay in 96-well microplates. Cells were seeded, next day treated with test compounds for 4 h and subsequently irradiated (the maximal wavelength emission of 414 nm and total dose of 2.5 and 10 J/cm^2). After irradiation, the cells were incubated for further 72 h and then the MTT solution was added. Cells were incubated for another 4 h at 37° C. and then the 0.1% SDS was added to the wells to solubilize the violet formazan crystals. The measurement of absorbance was carried out on reader Tecan Infinite M200Pro at 570 nm. Dark viability was measured in parallel under the same conditions without irradiation.

[3] = G-361, dark kept G361 cells, read-out: G361 - EC50, Dark
[4] = G-361, light or radiation study, light irradiated (414 nm, 10 J/cm^2) G361 cells, irradiation, read-out: G361 - EC50, 10 J/cm^2

SMILES: COc1ccc(/C=C/C2=Nc3ccc4ccccc4c3C2(C)C)cc1[N+](=O)[O-] [Compound 3f, 2-[(E)-2-(4-Methoxy-3-nitrophenyl)ethenyl]-1,1-dimethyl-1H-benzo[e]indole]
Stokes shift [1]: 146 nm
λabs [1]: 403 nm
λem [1]: 549 nm
EC50 [2, 3]: 4900 nM
EC50 [2, 4]: 200 nM

SMILES: CC1(C)C(/C=C/c2ccccc2[N+](=O)[O-])=Nc2ccc3ccccc3c21 [Compound 3p, 1,1-Dimethyl-2-[(E)-2-(2-nitrophenyl)ethenyl]-1H-benzo[e]indole]
Stokes shift [1]: 132 nm
λabs [1]: 434 nm
λem [1]: 566 nm
EC50 [2, 3]: 7800 nM
EC50 [2, 4]: 1100 nM

SMILES: CC1(C)C(/C=C/c2ccc(F)cc2)=Nc2ccc3ccccc3c21 [Compound 3d, 2-[(E)-2-(4-Fluorophenyl)ethenyl]-1,1-dimethyl-1H-benzo[e]indole]
Stokes shift [1]: 102 nm
λabs [1]: 430 nm
λem [1]: 532 nm
EC50 [2, 3]: 7300 nM
EC50 [2, 4]: 4100 nM

SMILES: CC1(C)C(/C=C/c2cccc([N+](=O)[O-])c2)=Nc2ccc3ccccc3c21 [Compound 3m, 1,1-Dimethyl-2-[(E)-2-(3-nitrophenyl)ethenyl]-1H-benzo[e]indole]
Stokes shift [1]: 89 nm
λabs [1]: 424 nm
λem [1]: 513 nm
EC50 [2, 3]: 2100 nM
EC50 [2, 4]: 300 nM

SMILES: CC1(C)C(/C=C/c2ccc(C(F)(F)F)cc2)=Nc2ccc3ccccc3c21 [Compound 3e, 1,1-Dimethyl-2-{(E)-2-[4-(trifluoromethyl)phenyl]ethenyl}-1H-benzo[e]indole]
Stokes shift [1]: 116 nm
λabs [1]: 415 nm
λem [1]: 531 nm
EC50 [2, 3]: 3600 nM
EC50 [2, 4]: 500 nM

SMILES: CC1(C)C(/C=C/c2ccc3ccccc3c2)=Nc2ccc3ccccc3c21 [Compound 3l, 1,1-Dimethyl-2-[(E)-2-(naphthalen-2-yl)ethenyl]-1H-benzo[e]indole]
Stokes shift [1]: 86 nm
λabs [1]: 437 nm
λem [1]: 523 nm
EC50 [2, 3]: > 10000 nM
EC50 [2, 4]: 1300 nM

SMILES: CC1(C)C(/C=C/c2ccccc2)=Nc2ccc3ccccc3c21 [Compound 3a, 1,1-Dimethyl-2-[(E)-2-phenylethenyl]-1H-benzo[e]indole]
Stokes shift [1]: 133 nm
λabs [1]: 397 nm
λem [1]: 530 nm
EC50 [2, 3]: 5800 nM
EC50 [2, 4]: 2000 nM

The remaining lines, values ahead:

Stokes shift [1]: 109 nm
λabs [1]: 400 nm
λem [1]: 509 nm
EC50 [2, 3]: > 10000 nM
EC50 [2, 4]: 1300 nM
SMILES: CC1(C)C(/C=C/c2cc(C(F)(F)F)cc(C(F)(F)F)c2)=Nc2ccc3ccccc3c21 [Compound 3b, 2-{(E)-2-[3,5-Bis(trifluoromethyl)phenyl]ethenyl}-1,1-dimethyl-1H-benzo[e]indole]

Stokes shift [1]: 98 nm
λabs [1]: 425 nm
λem [1]: 523 nm
EC50 [2, 3]: 6900 nM
EC50 [2, 4]: 1300 nM
SMILES: Cc1ccc(/C=C/C2=Nc3ccc4ccccc4c3C2(C)C)cc1[N+](=O)[O-] [Compound 3k, 1,1-Dimethyl-2-[(E)-2-(4-methyl-3-nitrophenyl)ethenyl]-1H-benzo[e]indole]

Stokes shift [1]: 126 nm
λabs [1]: 399 nm
λem [1]: 525 nm
EC50 [2, 3]: 7800 nM
EC50 [2, 4]: 2100 nM
SMILES: CC1(C)C(/C=C/c2ccc(F)c([N+](=O)[O-])c2)=Nc2ccc3ccccc3c21 [Compound 3i, 2-(E)-2-(4-Fluoro-3-nitrophenyl)ethenyl-1,1-dimethyl-1H-benzo[e]indole]

Stokes shift [1]: 113 nm
λabs [1]: 445 nm
λem [1]: 558 nm
EC50 [2, 3]: > 10000 nM
EC50 [2, 4]: 400 nM
SMILES: CC1(C)C(/C=C/c2cccc3ccccc23)=Nc2ccc3ccccc3c21 [Compound 3o, 1,1-Dimethyl-2-[(E)-2-(naphthalen-1-yl)ethenyl]-1H-benzo[e]indole]

Stokes shift [1]: 94 nm
λabs [1]: 426 nm
λem [1]: 520 nm
EC50 [2, 3]: 7800 nM
EC50 [2, 4]: 1300 nM
SMILES: CC1(C)C(/C=C/c2cccc(C(F)(F)F)c2)=Nc2ccc3ccccc3c21 [Compound 3n, 1,1-Dimethyl-2-{(E)-2-[3-(trifluoromethyl)phenyl]ethenyl}-1H-benzo[e]indole]

Stokes shift [1]: 98 nm
λabs [1]: 443 nm
λem [1]: 541 nm
EC50 [2, 3]: 6900 nM
EC50 [2, 4]: 1200 nM
SMILES: CC1(C)C(/C=C/c2cc([N+](=O)[O-])ccc2Cl)=Nc2ccc3ccccc3c21 [Compound 3c, 2-[(E)-2-(2-Chloro-5-nitrophenyl)ethenyl]-1,1-dimethyl-1H-benzo[e]indole]

Stokes shift [1]: 154 nm
λabs [1]: 369 nm
λem [1]: 523 nm
EC50 [2, 3]: 5100 nM
EC50 [2, 4]: 1300 nM
SMILES: CC1(C)C(/C=C/c2ccc(F)c(C#N)c2)=Nc2ccc3ccccc3c21 [Compound 3j, 5-[(E)-2-(1,1-Dimethyl-1H-benzo[e]indol-2-yl)ethenyl]-2-fluorobenzonitrile]

Stokes shift [1]: 106 nm
λabs [1]: 426 nm
λem [1]: 532 nm
EC50 [2, 3]: 7200 nM
EC50 [2, 4]: 300 nM
SMILES: CC1(C)C(/C=C/c2ccc(Cl)c([N+](=O)[O-])c2)=Nc2ccc3ccccc3c21 [Compound 3h, 2-[(E)-2-(4-Chloro-3-nitrophenyl)ethenyl]-1,1-dimethyl-1H-benzo[e]indole]
